{"source": "patent EP1077694B1", "about": "“ARYL NITRONE THERAPEUTICS FOR THE TREATMENT OF INFLAMMATORY BOWEL DISEASE” (Renovis, Inc., priority 1998, dated 1999)", "origin": "cited, not measured here", "system": "senescence-accelerated mice", "data": [{"smiles": "CC(C)(C)[N+]([O-])=Cc1ccccc1", "note": "[PBN, α-phenyl-t-butyl nitrone]", "values": [{"measurement": "increase the life span", "result": "one third"}]}]}
